For 54 molecules, IC50 results are on record in patent EP1345943B1, “INHIBITORS OF PAPILLOMA VIRUS” (BOEHRINGER INGELHEIM (CANADA) LTD., priority 2000, dated 2002).

Structures are written as SMILES.

The target in this test is E1-E2-DNA complex (Human papillomavirus 11, UniProt P04015). Put plainly: E2-dependent E1 DNA binding assay (E1-E2 DNA assay). The settings on record: E1-E2 DNA assay of Example 11, HPV-11. An outline of the steps: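 SPA-format binding of E1 (about 100-200 ng purified) and E2 (8 ng) to a 0.4 ng [33P]-labelled 400 bp HPV-11 origin probe, in 20 mM Tris pH 7.6, 100 mM NaCl, 1 mM DTT, 1 mM EDTA, for 1 h at room temperature. Complex captured 1 h with anti-E1 C-terminal antiserum on protein A-SPA beads and counted by scintillation; IC50 derived.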
Sequence of E1-E2-DNA complex (P04015 whole entry, one chain of several): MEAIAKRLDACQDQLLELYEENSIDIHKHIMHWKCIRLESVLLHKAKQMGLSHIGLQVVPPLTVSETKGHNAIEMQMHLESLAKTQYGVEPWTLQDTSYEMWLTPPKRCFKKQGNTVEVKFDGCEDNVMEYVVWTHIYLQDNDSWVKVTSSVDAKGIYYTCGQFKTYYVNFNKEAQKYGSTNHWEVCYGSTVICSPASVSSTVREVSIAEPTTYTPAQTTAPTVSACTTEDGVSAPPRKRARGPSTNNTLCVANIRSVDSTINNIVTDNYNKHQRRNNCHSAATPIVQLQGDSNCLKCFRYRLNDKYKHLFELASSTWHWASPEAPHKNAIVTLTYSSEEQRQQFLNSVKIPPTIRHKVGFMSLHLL

Usually IC50 stands for the point on the concentration scale where inhibition reaches its midpoint. A higher IC50 goes with a need for much substance. In the case of `O=C(NCCc1ccccc1)C1C(c2ccc(Br)c(Br)c2)OC2(C(=O)c3ccccc3C2=O)C1C(=O)O` (stereo not drawn) [Compound 1097], the IC50 was < 0.5 µM.

Molecule `O=C(Nc1ccc(Cl)cc1)C1C(c2ccc(Cl)c(Cl)c2)OC2(C(=O)c3ccccc3C2=O)C1C(=O)O` (stereo not drawn) [Compound 1101] had an IC50 of 0.5 to 5 µM. Take `O=C(Nc1ccc(N2CCOCC2)cc1)C1C(c2ccc(Br)c(Br)c2)OC2(C(=O)c3ccccc3C2=O)C1C(=O)O` (single isomer, unassigned) [Compound A1013]: the IC50 was < 0.5 µM. Under `O=C1C2C(c3ccc(Cl)cc3)OC3(C(=O)c4ccccc4C3=O)C2C(=O)N1c1ccc(Cl)cc1` (stereo not drawn) [Compound 2007] stands 5 to 50 µM; under `Cc1ccc2c(c1)C(=O)C13OC(c4ccc(Br)c(Br)c4)C(C(=O)Nc4ccc(N5CCOCC5)cc4)C1C(=O)OC23O` (single isomer, unassigned) [Compound B1002], < 0.5 µM; under `Cc1ccc2c(c1)C(=O)C1(OC(c3ccc(Cl)c(Cl)c3)C(C(=O)Nc3ccc4c(c3)OCO4)C1C(=O)O)C2=O` (single isomer, unassigned) [Compound A1005], < 0.5 µM. `CC(=O)c1ccc(NC(=O)C2C(c3ccc(Cl)c(Cl)c3)OC34C(=O)c5sc(C)cc5C3(O)OC(=O)C24)cc1` (stereo not drawn) [Compound C1001] displayed a concentration for half-maximal inhibition (IC50) of 5 to 50 µM. Under `O=C(Nc1ccc(C(F)(F)F)cc1)C1C(c2ccc(Cl)cc2)OC2(C(=O)c3ccccc3C2=O)C1C(=O)O` (stereo not drawn) [Compound 1014] stands 5 to 50 µM; under `O=C(Nc1ccc(-c2csnn2)cc1)C1C(c2ccc(Cl)c(Cl)c2)OC2(C(=O)c3ccccc3C2=O)C1C(=O)O` (stereo not drawn) [Compound 1052], < 0.5 µM. Under `Cc1cc2c(s1)C1(O)OC(=O)C3C(C(=O)Nc4ccc(CNC(=O)OC(C)(C)C)cc4)C(c4ccc(Br)c(Br)c4)OC31C2=O` (single isomer, unassigned) [Compound D1003] stands < 0.5 µM. With `O=C(NCc1ccc2c(c1)OCO2)C1C(c2ccc(Cl)c(Cl)c2)OC2(C(=O)c3ccccc3C2=O)C1C(=O)O` (stereo not drawn) [Compound 6001] the figure was 5 to 50 µM; with `COc1ccc(OC)c(CCNC(=O)C2C(c3ccc(Cl)c(Cl)c3)OC3(C(=O)c4ccccc4C3=O)C2C(=O)O)c1` (stereo not drawn) [Compound 1137], 0.5 to 5 µM.

Take `COc1cccc(C2OC3(C(=O)c4ccccc4C3=O)C(C(=O)O)C2C(=O)Nc2ccc3c(c2)OCO3)c1` (racemic) [Compound 1023]: the IC50 was in the range of 5 to 50 µM.

The molecule `N#Cc1ccc(NC(=O)C2C(c3ccc(Cl)c(Cl)c3)OC3(C(=O)c4ccccc4C3=O)C2C(=O)O)cc1` (stereo not drawn) [Compound 1070] returned an IC50 of 0.5 to 5 µM.

With `O=C(NCc1ccccc1)C1C(c2ccc(Cl)c(Cl)c2)OC23C(=O)c4ccccc4C2(O)OC(=O)C13` (racemic) [Compound 3011], the IC50 was 0.5 to 5 µM. With `CC(C)(C)c1ccc(NC(=O)C2C(c3ccc(Br)c(Br)c3)OC3(C(=O)c4ccccc4C3=O)C2C(=O)O)cc1` (stereo not drawn) [Compound 1079] the figure was 5 to 50 µM. With `CS(=O)(=O)c1ccc(NC(=O)C2C(c3ccc(Cl)c(Cl)c3)OC3(C(=O)c4ccccc4C3=O)C2C(=O)O)cc1` (stereo not drawn) [Compound 1053] the figure was 0.5 to 5 µM; with `Cc1ccc2c(c1)C(=O)C1(OC(c3ccc(Br)c(Br)c3)C(C(=O)Nc3ccc(-c4csnn4)cc3)C1C(=O)O)C2=O` (stereo not drawn) [Compound A1009], 5 to 50 µM; with `O=C(NN1CCOCC1)C1C(c2ccc(Cl)c(Cl)c2)OC2(C(=O)c3ccccc3C2=O)C1C(=O)O` (stereo not drawn) [Compound 1043], 0.5 to 5 µM. With `O=C(Nc1ccc(C2CCCCC2)cc1)C1C(c2ccc(Cl)c(Cl)c2)OC2(C(=O)c3ccccc3C2=O)C1C(=O)O` (stereo not drawn) [Compound 1054] the figure was < 0.5 µM; with `CC(=O)c1ccc(NC(=O)C2C(c3ccc(F)c(F)c3)OC3(C(=O)c4ccccc4C3=O)C2C(=O)O)cc1` (stereo not drawn) [Compound 1064], 5 to 50 µM; with `CC(=O)c1ccc(NC(=O)C2C(C(C)=Cc3ccccc3)OC3(C(=O)c4ccccc4C3=O)C2C(=O)O)cc1` (racemic) [Compound 4009], 5 to 50 µM. Turning to `O=C(Nc1ccc(F)c(F)c1)C1C(c2ccc(Cl)c(Cl)c2)OC2(C(=O)c3ccccc3C2=O)C1C(=O)O` (stereo not drawn) [Compound 1111], the IC50 lay within 0.5 to 5 µM. With `O=C1C2C(c3ccc(Cl)c(Cl)c3)OC3(C(=O)c4ccccc4C3O)C2C(=O)N1c1ccc2c(c1)OCO2` (racemic) [Compound 9001] the figure was 5 to 50 µM.

Turning to `O=C(Nc1cnc2ccccc2c1)C1C(c2ccc(F)c(F)c2)OC2(C(=O)c3ccccc3C2=O)C1C(=O)O` (stereo not drawn) [Compound 1061], the half-inhibitory concentration (IC50) lay within 5 to 50 µM. With `Cc1ccc(NC(=O)C2C(c3ccc(Cl)cc3)OC3(C(=O)c4ccccc4C3=O)C2C(=O)O)cc1` (stereo not drawn) [Compound 1007] the figure was 5 to 50 µM; with `O=C(Nc1ccc2c(c1)OCO2)C1C(c2ccc(Br)c(Br)c2)OC2(C(=O)c3ccccc3C2=O)C1C(=O)O` (stereo not drawn) [Compound 1084], < 0.5 µM. With `O=C(c1ccccc1)c1cccc(NC(=O)C2C(c3ccc(Cl)c(Cl)c3)OC3(C(=O)c4ccccc4C3=O)C2C(=O)O)c1` (stereo not drawn) [Compound 1100] the figure was 0.5 to 5 µM; with `COC(=O)C1C(C(=O)Nc2ccc3c(c2)OCO3)C(c2ccc(Cl)c(Cl)c2)OC12C(=O)c1ccccc1C21CO1` (racemic) [Compound 7001], 5 to 50 µM; with `O=C(Nc1ccc(N2CCOCC2)cc1)C1C(c2ccc(F)c(F)c2)OC2(C(=O)c3ccccc3C2=O)C1C(=O)O` (stereo not drawn) [Compound 1059], 0.5 to 5 µM. Under `N#Cc1cccc(C2OC3(C(=O)c4ccccc4C3=O)C(C(=O)O)C2C(=O)Nc2ccc(N3CCOCC3)cc2)c1` (stereo not drawn) [Compound 1085] stands 5 to 50 µM.

Regarding `CSc1ccc(NC(=O)C2C(c3ccc(Br)c(Br)c3)OC3(C(=O)c4ccccc4C3=O)C2C(=O)O)cc1` (stereo not drawn) [Compound 1081], the IC50 was < 0.5 µM.

`CC(=O)c1ccc(NC(=O)C2C(c3ccc(Cl)c(Cl)c3)OC3(C(=O)c4ccccc4C3=O)C2C(=O)O)cc1` (racemic) [Compound 1047] gave a half-inhibitory concentration (IC50) of 0.5 to 5 µM. With `Cc1ccc2c(c1)C(=O)C1(OC(c3ccc(Br)c(Br)c3)C(C(=O)Nc3ccc(-c4csnn4)cc3)C1C(=O)O)C2=O` (single isomer, unassigned) [Compound A1010] the figure was 0.5 to 5 µM; with `O=C(Nc1ccc(-c2csnn2)cc1)C1C(c2ccc(Br)c(Br)c2)OC2(C(=O)c3ccccc3C2=O)C1C(=O)O` (single isomer, unassigned) [Compound A1001], 5 to 50 µM; with `Cc1ccc2c(c1)C(=O)C13OC(c4ccc(Br)c(Br)c4)C(C(=O)NCCc4ccccc4Cl)C1C(=O)OC23O` (single isomer, unassigned) [Compound B1004], 5 to 50 µM. Molecule `Cc1cccc2c1C(=O)C1(OC(c3ccc(Cl)c(Cl)c3)C(C(=O)Nc3ccc4c(c3)OCO4)C1C(=O)O)C2=O` (stereo not drawn) [Compound 1041] had a 50% inhibitory concentration (IC50) of 0.5 to 5 µM. With `CC(=O)c1ccc(NC(=O)C2C(c3ccc(Cl)c(Cl)c3)OC34C(=O)c5cc(C)sc5C3(O)OC(=O)C24)cc1` (single isomer, unassigned) [Compound D1001] the figure was < 0.5 µM; with `O=C(Nc1ccc(N2CCOCC2)cc1)C1C(c2ccc(Br)c(Br)c2)OC2(C(=O)c3ccccc3C2=O)C1C(=O)O` (racemic) [Compound 1078], < 0.5 µM; with `O=C(Nc1ccc2c(c1)OCO2)C1C(c2ccc(Cl)c(F)c2)OC2(C(=O)c3ccccc3C2=O)C1C(=O)O` (stereo not drawn) [Compound 1029], 0.5 to 5 µM. Under `Cc1cccc(NC(=O)C2C(c3ccc(Cl)cc3)OC3(C(=O)c4ccccc4C3=O)C2C(=O)O)c1` (stereo not drawn) [Compound 1012] stands 5 to 50 µM; under `O=C(Nc1ccc(Cl)cc1)C1C(c2ccc(Cl)cc2)OC2(C(=O)c3ccccc3C2=O)C1C(=O)O` (stereo not drawn) [Compound 1010], 5 to 50 µM. Under `O=C1C2C(c3ccc(Cl)cc3)OC3(C(=O)c4ccccc4C3=O)C2C(=O)N1c1ccc(F)cc1` (stereo not drawn) [Compound 2004] stands 5 to 50 µM; under `CC(=O)c1ccc(NC(=O)C2C(c3ccc(Cl)c(Cl)c3)OC3(C(=O)c4ccccc4C3=O)C2C(=O)O)cc1` (stereo not drawn) [Compound 1021], < 0.5 µM. The molecule `Cc1cccc(C2OC3(C(=O)c4ccccc4C3=O)C(C(=O)O)C2C(=O)Nc2ccc3c(c2)OCO3)c1` (stereo not drawn) [Compound 1018] returned an IC50 of 5 to 50 µM. The molecule `Cc1cccc2c1C(=O)C1(OC(c3ccc(Cl)c(Cl)c3)C(C(=O)Nc3ccc4c(c3)OCO4)C1C(=O)O)C2=O` (stereo not drawn) [Compound 1042] gave an IC50 of 0.5 to 5 µM. With `O=C(Nc1ccc(-c2csnn2)cc1)C1C(c2ccc(Br)c(Br)c2)OC2(C(=O)c3ccccc3C2=O)C1C(=O)O` (racemic) [Compound 1076] the figure was < 0.5 µM. With `Cc1ccc(C2OC3(C(=O)c4ccccc4C3=O)C(C(=O)O)C2C(=O)Nc2cnc3ccccc3c2)cc1C` (stereo not drawn) [Compound 1071] the figure was 5 to 50 µM; with `Cc1cc2c(cc1F)C(=O)C1(OC(c3ccc(Br)c(Br)c3)C(C(=O)Nc3ccc(N4CCOCC4)cc3)C1C(=O)O)C2=O` (single isomer, unassigned) [Compound A1016], 0.5 to 5 µM. With `CC(=O)NCc1ccc(NC(=O)C2C(c3ccc(Br)c(Br)c3)OC34C(=O)c5cc(C)sc5C3(O)OC(=O)C24)cc1` (single isomer, unassigned) [Compound D1004] the figure was < 0.5 µM.

Molecule `O=C(c1ccccc1)c1cccc(NC(=O)C2C(c3ccc(Br)c(Br)c3)OC3(C(=O)c4ccccc4C3=O)C2C(=O)O)c1` (stereo not drawn) [Compound 1103] showed a concentration for half-maximal inhibition (IC50) of 0.5 to 5 µM. With `O=C(Nc1ccc2c(c1)OCO2)C1C(c2ccc(C(F)(F)F)cc2)OC2(C(=O)c3ccccc3C2=O)C1C(=O)O` (stereo not drawn) [Compound 1016] the figure was 5 to 50 µM.

`N#Cc1cccc(NC(=O)C2C(c3ccc(Cl)c(Cl)c3)OC3(C(=O)c4ccccc4C3=O)C2C(=O)O)c1` (stereo not drawn) [Compound 1127] returned an IC50 of 0.5 to 5 µM.

`CC(C)c1ccc(C2OC3(C(=O)c4ccccc4C3=O)C(C(=O)O)C2C(=O)Nc2ccc3c(c2)OCO3)cc1` (stereo not drawn) [Compound 1008] returned a half-inhibitory concentration (IC50) of 5 to 50 µM.
